From patent US20050171171A1, “Amide derivatives as FLT-3 modulators” (Ambit Biosciences Corporation, priority 2003, published 2005) come the findings set out here.

Where only a bound is given, the exact number is not on record here.

For assay [1], the target named is T1, FLT3(DKIN) (Homo sapiens, UniProt P36888).
T1 construct: 3(DKIN); made in house
T1 sequence (P36888 610-943 limits assumed): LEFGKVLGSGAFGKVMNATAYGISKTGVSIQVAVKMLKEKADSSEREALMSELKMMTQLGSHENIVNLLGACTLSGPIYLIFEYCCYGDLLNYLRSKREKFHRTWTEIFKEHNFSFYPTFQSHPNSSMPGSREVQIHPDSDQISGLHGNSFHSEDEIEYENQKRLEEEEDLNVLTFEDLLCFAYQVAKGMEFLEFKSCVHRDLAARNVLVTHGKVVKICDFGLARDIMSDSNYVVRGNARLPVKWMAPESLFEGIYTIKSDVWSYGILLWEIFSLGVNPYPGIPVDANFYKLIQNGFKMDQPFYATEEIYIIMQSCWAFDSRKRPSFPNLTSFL
Put plainly: Binding Assay: FLT3(DKIN), phage-displayed kinase competition binding (Kd). From the text:
(§1) Binding Constant (Kd) Measurements for Small-Molecule-Kinase Interactions
(§2) The term “ND” represents non-determined values.

Assay [2] relates to MV4,11 cells. Put plainly: Cell Assay: CS0001, FLT3 assay using MV4,11 cells (MTS proliferation). Format: cell-based. The following applies: Homo sapiens. The method, then: The ability of FLT3 kinase inhibitors to inhibit cellular proliferation was also examined. MV4:11 was a cell line derived from a patient with acute myelogenous leukemia. It expressed a mutant FLT3 protein that was constitutively active. […] Inhibition of FLT3 kinase activity prevented proliferation of these cells, and thus the MV4:11 cell line can be used a model for cellular activity of small molecule inhibitors of FLT3.
FLT3 Assay Using MV4,11 Cells
MV4,11 cells were grown in an incubator @ 37° C. in 5% CO2 in Medium 2 (RPM 10% FBS, 4 mM glutamine, Penn/Strep). The cells were counted daily and the cell density was kept between 1e5 and 8e5 cells/ml.
Day One: Enough cells were harvested for experiments to be conducted in 50 ml conical tubes. The harvested cells were spun at 500 g for 5 min at 4° C., the supernatant was then aspirated and the cells were resuspended in the starting volume of 1× PBS. The cells were again spun at 500 g for 5 min at 4° C. and the supernatant again aspirated. The cells were then resuspended in medium 3 (DMEM w/glut, 10% FBS, Penn/Strep) to a density of 4e5 cells/ml and incubated @ 37° C. in 5% CO2 O/N.
Day Two: The cells were counted and enough medium 3 was added to decrease density to 2e5 cells/ml. 50 ul (10,000 cells) was aliquoted into each well of a 96 well optical plate using multichannel pipetman. The compound plate was then set up by aliquoting 3 μl of negative control (DMSO) into column 1 of a 96 well 300 ul polypropylene plate, aliquoting 3 μl of positive control (10 mM AB20121) into column 12 of plate, and aliquoting 3 μl of appropriate compounds from serial dilutions into columns 2-11. To each well, 150 μl of Medium 3 was added and 50 μl of compound/medium mixture from compound plate into rows of optical plate in duplicate. The cells were then incubated @ 37° C. in 5% CO2 for 3 days.
Day Five: MTS was thawed in a H2O bath. 20 μl of MTS was added to each well of optical plate and the cells were incubated @ 37° C. in 5% CO2 for 2 hours. The plate was then placed on a plate shaker for 30 seconds on high speed.

Assay [3] is described as follows: Cell Assay: CS0002. Format: cell-based.
The target of assay [4] is T2, FLT3(JMminus) (Homo sapiens, UniProt P36888).
T2 construct: "FLT 3(JMminus)"; fused on or other part: Fused to a T7 bacteriophage particle (phage display)
T2 sequence (P36888 610-943 limits assumed): T1 sequence (P36888 610-943 limits assumed)
Kind of assay: Binding Assay: FLT3(JMminus), phage-displayed kinase competition binding (Kd).
Excerpt: as §1, §2

The Kd is the constant that tells how readily two partners part at equilibrium. A lower Kd goes with higher affinity. In assay [1], `COc1ccc(CC(=O)Nc2cc(C(C)(C)C)no2)cc1` yielded an equilibrium dissociation constant (Kd) of less than 100 nM. What is called IC50 is the concentration that gives 50% inhibition. A low value points to inhibition by little substance. Consider `CC(C)(C)c1cc(NC(=O)Cc2ccc(OCc3ccccc3)cc2)on1`, for which the Kd in assay [1] is less than 100 nM. In assay [2], this molecule returned an IC50 of less than 100 nM. In turn, `CC(C)(C)c1cc(NC(=O)Cc2ccc(F)cc2)on1` returned a Kd in assay [1] of less than 100 nM. On to `CC(C)(C)c1cc(NC(=O)Cc2ccc(Cl)cc2)on1`, for which the Kd in assay [1] was less than 100 nM.

For `CC(C)(C)c1cc(NC(=O)Cc2ccc(Br)cc2)on1`, the Kd in assay [1] is less than 100 nM. The molecule `COc1ccc(SC(=O)Nc2cc(C(C)(C)C)on2)cc1` showed a Kd in assay [1] of 1000 to 10000 nM.

Consider `CC(C)(C)c1cc(NC(=O)Sc2ccc(Cl)cc2)no1`, for which the Kd in assay [1] is 1000 to 10000 nM. As for `COc1ccc(CC(=O)Nc2cc(C3CC3)nn2-c2ccccc2)cc1`, in assay [1], the Kd lay within 1000 to 10000 nM.

On to `O=C(Cc1ccc(OCc2ccccc2)cc1)Nc1cc(C2CC2)nn1-c1ccccc1`, for which the dissociation constant (Kd) in assay [1] is 100 to 1000 nM. For the molecule `CC(C)(C)c1cc(NC(=O)Cc2ccc(O)cc2)no1`, the Kd in assay [1] lay in the range of 100 to 1000 nM. In turn, `Cc1csc(NC(=O)Cc2ccc(OCc3ccccc3)cc2)n1` came in with a Kd in assay [1] greater than 10000 nM.

Molecule `Cc1cnc(NC(=O)Cc2ccc(OCc3ccccc3)cc2)s1` showed a Kd in assay [1] greater than 10000 nM.

With `O=C(Cc1ccc(OCc2ccccc2)cc1)Nc1nc(-c2ccc(Cl)cc2)cs1`, the dissociation constant Kd in assay [1] is greater than 10000 nM.

Consider `O=C(Cc1ccc(OCc2ccccc2)cc1)Nc1nc2ccccc2s1`, for which, in assay [1], the Kd is greater than 10000 nM. On the same count and under the same terms, as for `COc1cccc2sc(NC(=O)Cc3ccc(OCc4ccccc4)cc3)nc12`, the figure is greater than 10000 nM. The same measure, in the same setting: next, `O=C(Cc1ccc(OCc2ccccc2)cc1)Nc1nc2ccc(F)cc2s1`: greater than 10000 nM; `O=C(Cc1ccc(OCc2ccccc2)cc1)Nc1nc2cc(Cl)ccc2o1`: 100 to 1000 nM. Regarding `CC(C)(C)c1cc(C(=O)Nc2ccc(OCC3CC3)cc2)no1`, in assay [1], the Kd is greater than 10000 nM. Besides, the IC50 in assay [2] lay in the range of 1000 to 10000 nM.

In the case of `CC(C)(C)c1cc(C(=O)Nc2ccc(OCc3ccccc3F)cc2)no1`, the Kd in assay [1] lay within 1000 to 10000 nM. This molecule showed an IC50 in assay [2] of 1000 to 10000 nM. In assay [1], `Cc1noc(-c2ccc(-c3noc(-c4cc(C(C)(C)C)on4)n3)cc2)n1` gave a Kd greater than 10000 nM. For the same molecule, the IC50 in assay [2] is greater than 10000 nM. In assay [1], `CC(C)(C)c1cc(-c2nc(-c3ccc(Cl)cc3)no2)no1` showed a Kd greater than 10000 nM. In addition, the IC50 in assay [2] was greater than 10000 nM. `CC(C)(C)c1cc(-c2nc(-c3ccc(O)cc3)no2)no1`: the Kd in assay [1] was greater than 10000 nM. The 50% inhibitory concentration (IC50) in assay [2] lay within 1000 to 10000 nM.

For `CC(C)(C)c1cc(-c2nc(-c3ccc(OCc4ccccc4F)cc3)no2)no1`, the equilibrium dissociation constant (Kd) in assay [1] is greater than 10000 nM. Besides, the IC50 in assay [2] was in the range of 100 to 1000 nM. Molecule `Cc1ccc(NC(=O)c2ccc(-c3noc(-c4cc(C(C)(C)C)on4)n3)cc2)cc1` yielded a Kd in assay [1] greater than 10000 nM. In assay [2], this molecule had an IC50 of 100 to 1000 nM. `Cc1cc(C)n(C(=O)Nc2ccc(Cl)cc2)n1`: the Kd in assay [1] was greater than 10000 nM. The molecule further had an IC50 in assay [2] greater than 10000 nM. Molecule `CC(C)(C)c1cc(/C=N/C(=N\O)c2ccc(Cl)cc2)no1` gave a Kd in assay [1] of 1000 to 10000 nM. In assay [2], this molecule returned a 50% inhibitory concentration (IC50) of 1000 to 10000 nM. In the case of `Cc1nn(C)c(Cl)c1C(=O)Nc1ccc(CC(=O)Nc2cc(C(C)(C)C)on2)cc1`, the IC50 in assay [2] is 100 to 1000 nM; in assay [3], greater than 10000 nM. In assay [4], this molecule showed a Kd of less than 100 nM.

As for `CSc1ncc(Br)c(C(=O)Nc2ccc(CC(=O)Nc3cc(C(C)(C)C)on3)cc2)n1`, the concentration for half-maximal inhibition (IC50) in assay [2] is less than 100 nM; in assay [3], greater than 10000 nM. Also, the Kd in assay [4] is less than 100 nM. As to `CC(C)(C)c1cc(NC(=O)Cc2ccc(NC(=O)c3ccc4cnccc4n3)cc2)no1`, the concentration for half-maximal inhibition (IC50) in assay [2] was less than 100 nM; in assay [3], greater than 10000 nM. Besides, the Kd in assay [4] is less than 100 nM. Regarding `Cn1cc(C(=O)Nc2ccc(CC(=O)Nc3cc(C(C)(C)C)on3)cc2)c2ccccc21`, the IC50 in assay [2] is less than 100 nM; in assay [3], greater than 10000 nM. Also, the Kd in assay [4] is less than 100 nM.

For the molecule `CC(C)(C)c1cc(NC(=O)Cc2ccc(NC(=O)c3cccc4cccnc34)cc2)no1`, the IC50 in assay [2] is 1000 to 10000 nM; in assay [3], greater than 10000 nM. In assay [4], this molecule returned a dissociation constant Kd of 100 to 1000 nM. Consider `CC(C)(C)c1cc(NC(=O)Cc2ccc(NC(=O)c3cnc4ccccc4c3)cc2)no1`, for which the figures for the IC50 in assay [2] and in assay [3] were less than 100 nM and greater than 10000 nM, respectively. For the same molecule, the Kd in assay [4] is less than 100 nM.
